Molecular target: T1, Hydroxyproline dehydrogenase (Homo sapiens, UniProt Q9UF12)
T1 sequence (Q9UF12 whole entry): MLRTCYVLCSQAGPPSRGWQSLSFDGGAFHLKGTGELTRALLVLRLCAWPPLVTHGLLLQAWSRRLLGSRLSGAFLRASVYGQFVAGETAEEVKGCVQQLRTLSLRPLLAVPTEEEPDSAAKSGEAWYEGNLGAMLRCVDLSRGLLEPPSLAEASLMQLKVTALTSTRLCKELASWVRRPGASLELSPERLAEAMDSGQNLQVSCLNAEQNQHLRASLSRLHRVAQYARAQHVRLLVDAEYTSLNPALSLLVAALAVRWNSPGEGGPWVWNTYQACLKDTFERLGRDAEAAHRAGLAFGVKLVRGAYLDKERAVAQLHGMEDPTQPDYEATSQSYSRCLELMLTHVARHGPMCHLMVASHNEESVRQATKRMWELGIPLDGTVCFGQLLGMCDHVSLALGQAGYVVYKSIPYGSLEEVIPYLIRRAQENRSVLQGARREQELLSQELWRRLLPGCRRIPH
Assay: Inhibition of human recombinant HYPDH expressed in Escherichia coli using hydroxyproline as substrate preincubated for 5 mins followed by substrate addition in presence of FAD as cofactor

SMILES: O=C(O)c1ccco1
- IC50: Nd(Insoluble)

— ChEMBL document CHEMBL4418284, “Hypdh inhibitors and methods of use for the treatment of kidney stones” (2018)
